For test [1], the system named is liver cancer carcinoma cell line SMMC7721. Kind of test: Soft agar colony (clone) formation, SMMC7721. The class given is cell-based. Conditions: crystal violet, FIG. 4, compound 3a 0, 5 and 5 [sic] μg/mL. Here is the method: […] of low-melting-point agarose was dissolved in 12.5 mL of ddH2O to prepare a 3.2% low-melting-point agarose gel. The low-melting-point agarose gel was sterilized by autoclaving at 121° C. and 0.12 MPa for 20 minutes. After sterilization, the low-melting-point agarose gel was maintained at 60° C. in a drying oven for further use.
1.75 mL of 3.2% sterile low-melting-point agarose gel was taken, 5.25 mL of the corresponding complete medium was added, and the two were mixed thoroughly using a pipette to prepare a base gel at a concentration of 0.8%.
1 mL of the base gel was added to each well of a 6-well plate, ensuring that the base gel evenly covered the bottom of each well. The plate was placed at 4° C. for 5 minutes to allow the gel to solidify. After the gel had fully solidified, the plate was warmed at 37° C. for 5 minutes.
6 cells/cell lines (U251, SMMC7721, GSC-3, GSC-12, SMMC7721-CSC, and HepG2-CSC) were individually digested with 1× trypsin for 3 minutes. The corresponding complete culture medium (same as in the application example 1) was added to terminate the digestion. Cells were centrifuged at 1000 rpm for 3 minutes, and the cells were collected and counted. A total of 5×10^3 cells were added to each well, each group was set up with three replicates. […]

The test system of a further test is HEK-293T. In words: MTS cell viability assay, HEK-293T (293T) normal cells. It counts as cell-based. The conditions noted are these: Homo sapiens, HEK-293T, 72 h, read-out: IC50 against HEK-293T. Here is the method: (§1) Primary viability screening: (1) the synthesized compounds 3a to 13d were respectively dissolved in DMSO to prepare a 40 μg/mL cannabicyclol and cannabicyclol derivative solutions.
(§2) (2) A control group: a 200 μL DMSO solvent.
(§3) (3) The solutions of compounds 3a to 13d were diluted in a twofold gradient to obtain cannabicyclol and cannabicyclol derivative solutions at concentrations of 40 μg/mL, 20 μg/mL, 10 μg/mL, 5 μg/mL, 2.5 μg/mL, 1.25 μg/mL, and 0.625 μg/mL, and 0.3125 μg/mL, respectively.
(§4) (4) Three glioblastoma stem cells (GSC-3, GSC-12, and GSC-18), three pancreatic cancer cell-derived stem cells (PANC-1-CSC, BXPC-3-CSC, and ASPC1-CSC), three liver cancer cell-derived stem cells (HepG2-CSC, MHCC97H-CSC, and SMMC7721-CSC), HEK-293T cells, 16 tumor cells (U251, U87, T98G, PANC1, BXPC3, ASPC1, HepG2, MHCC97H, SMMC7721, PC3, SKOV3, MDA-MB231, A549, HCT116, HEC-1B, MKN28), and differentiated glioblastoma stem cells (GSC-3diff and GSC-12diff) derived from GSC-3 and GSC-12 (all of the cells were provided by the Laboratory of Tumor Animal Model Preparation and Application Research, West China Hospital, Sichuan University) were inoculated into a 96-well plate at a concentration of 2×10^4 cells/well, and 100 μL of culture medium was then added to each well;
(5) 2) HEK-293T, GSC-3diff, GSC-12diff, and the 16 tumor cells were added with DMEM, 10% FBS, and 1% double antibody culture medium. Cancer stem cells (CSCs) were added with serum-free stem cell medium consisting of DMEM/F12, EGF (20 ng/mL), bFGF (20 ng/mL), B27 (1×), and 1% double antibody culture medium.
(6) Inoculated cells were put into a cell culture incubator for 24 hours, and after the cells were well adhered to the wall, the culture medium in the 96-well plate was discarded.
(7) 200 μL cannabicyclol and cannabicyclol derivatives solutions at different concentrations were added to the cultured cells.
(8) The experiment was set up with 3 replicates.
(9) The 96-well plate was placed in a cell culture incubator, and incubation was continued at 37° C. and 5% CO2 for 72 hours. Then, 100 μL of cannabicyclol and cannabicyclol derivative solution per well was discarded (100 μL of DMSO solvent was discarded for the control group), and 20 μL of LMTS (CellTiter AQueous Non-Radioactive Cell Proliferation Assay, #G3581) was mixed and continued to be placed in the cell incubator for 2 hours of incubation.
(§5) (10) The absorbance value at 490 nm was measured on an enzyme labeling apparatus, and the IC50 value was calculated.

In the next test the test system is GSC-3diff. In words: MTS cell viability assay, differentiated glioblastoma stem cells GSC-3diff. The class given is cell-based. The conditions noted are these: Table 7, 72 hours, read-out: IC50 against GSC-3diff. The method, then:
as §1, §2, §3
as §4, with “well; […]” for “well;”
as §5

The test system of another test is SMMC7721 liver cancer. Kind of test: Mouse liver cancer model (subcutaneous SMMC7721). The class given is in vivo, mice. Conditions: for tumor volume compared with the control group: 23 days, FIG. 5; for tumor weight compared with the control group: day 23, FIG. 7. The method, then: Establishment of a mouse liver cancer model: 2×10^6 SMMC7721 (containing 30% Matrigel) was subcutaneously injected into the right inguinal region of the mice (NOD/ShiLtJGpt-Prkdc^em26cd52 Il2rg^em26cd22/Gpt(NCG)mic). The model was established when the tumor volume reached 50 mm^3.
According to the weight of mice: in treatment group 1, each mouse was intraperitoneally injected with a CBL solution at 50 mg/kg, and in treatment group 2, each mouse was intraperitoneally injected with a CBL solution at 100 mg/kg. The mice in a control group were injected with an equal volume of a DMSO solvent. The drug was administered once every 2 days, continuing for 23 days. Tumor volume was measured on days 3, 7, 10, 14, 17, 20, and 23. On day 23, the tumor tissue was collected and weighed. The tumor volume changes at different time points are shown in FIG. 5, the tumor tissue collected on day 23 is shown in FIG. 6, and the average tumor weight of different treatment groups is shown in FIG. 7.

Setting [2] is: treatment group 1, 50 mg/kg intraperitoneally once every 2 days.
[3] abbreviates: treatment group 2, 100 mg/kg intraperitoneally once every 2 days.

The structures appear in SMILES notation. ≈ marks a conversion by molar mass, not a printed value.

In the case of `CCCCCc1cc(O)c2c(c1)OC1(C)CCC3C1C2C3(C)C` (centres unmarked) [Compound 3a, cannabicyclol], in test [1], the “colony formation of SMMC7721” value is listed as “significantly inhibited”. For the same molecule, the IC50 with HEK-293T is above 40 µg/mL; in the test on GSC-3diff it was 23.5 µg/mL (≈ 74.7 µM). Also, in the test on SMMC7721 liver cancer (100 mg/kg versus 50 mg/kg dosage, intraperitoneal), the “inhibitory effect on liver cancer, 100 mg/kg compared to 50 mg/kg” value was “better inhibitory effect”. Also, the “tumor volume compared with the control group” value with SMMC7721 liver cancer (setting [2]) and in the test with SMMC7721 liver cancer (setting [3]) was “significantly inhibited” each time. In addition, the “tumor weight compared with the control group” value with SMMC7721 liver cancer (setting [2]) and in the test on SMMC7721 liver cancer (setting [3]) was “significantly inhibited” throughout.
